The results in this text go back to patent publication US5026724A, “Compounds with bronchodilator activity” (Akzo N.V., priority 1988, dated 1991).

Structures can show the parent of a compound that is named as a salt.

The assay relates to Isolated, single ring preparations of guinea-pig trachea. As to the kind of experiment: relaxant effect after tone contracture induced by histamine in isolated guinea-pig trachea rings. Type of assay: cell-based. Conditions: Cavia porcellus, contracture by histamine (40 μM), flurbiprofen (1 μM) present, 37° C., cumulative concentration-effect curves. The procedure:
Compounds of formula I show strong bronchodilator activity, which for instance can be measured by the relaxant effect of the compounds after tone contracture by histamine, which is determined as follows. Isolated, single ring preparations of guinea-pig trachea were suspended in tissue baths containing KrebsHenseleit solution, at 37° C., bubbled with a gaseous mixture of 5% CO2 and 95% 02 Tissues were allowed to equilibrate for 60 min. after which flurbiprofen (1 μM), a cyclo-oxygenase inhibitor, was added to the tissue bath and a further 60 min. equilibration allowed to elapse. The flurbiprofen remained in contact with the tissue for the duration of the experiment in order to eliminate the complications that arise in guinea-pig airway preparations due to the spontaneous and agonist-induced generation of cyclo-oxygenase products (for example PGE2 and PGF2α) No other drugs (e.g. atropine or β-adrenoceptor antagonists) were present during the experimental protocol. […] Thus, tone (contracture) was induced by addition of an equi-effective (EC50) concentration of histamine (40 μM). The relaxant effects of each compound were tested by constructing cumulative concentration-effect curves. In each experiment, three preparations were contracted with histamine. After completion of the relaxant concentration-effect curves the compound under test was thoroughly washed out from the preparations which were then left to recover to control levels of resting tension (approx. 60 min.). Results of this test for the compounds of formula I are denoted in the table.
Regarding `COc1cc2cc(/C=N\O)sc2cc1OC` [H OCH3 H H(Z-isomer) S none, (Z)-5,6-dimethoxy-benzo[b]thiophene-2-carboxaldehyde oxime], the concentration giving a half-maximal response (EC50) came to 5 µM. This counts as single-digit micromolar. Consider `COc1cc2cc(/C=N/O)sc2cc1OC` [H OCH3 H H(E-isomer) S none, (E)-5,6-dimethoxy-benzo[b]thiophene-2-carboxaldehyde oxime], for which the half-maximal effective concentration (EC50) was found to be 2 µM. For the compound `COc1cc(OC)c2cc(C(=N)NO)oc2c1` [OCH3 H H NH2 O HCl, N-hydroxy-4,6-dimethoxy-benzo[b]furan-2-carboximidamide], the 50% effective concentration (EC50) came out at 5 µM. This EC50 lies about 2.5-fold higher than the previous one. As for `COc1cc2sc(C(=N)NO)cc2c(F)c1OC` [F OCH3 H NH2 S CH3 SO3 H, 4-fluoro-N-hydroxy-5,6-dimethoxy-benzo[b]thiophene-2-carboximidamide], the figure is 2.5 µM.

The compound `COc1cc2cc(C(=N)NO)sc2cc1OC` [H OCH3 H NH2 S none, N-hydroxy-5,6-dimethoxy-benzo[b]thiophene-2-carboximidamide] came in with an EC50 of 8 µM. Next, `COc1cc2cc(/C(C)=N/O)sc2cc1OC` [H OCH3 H CH3 (E-isomer) S none, (E)-1-(5,6-dimethoxy-benzo[b]thien-2-yl)-ethanone oxime]: 0.1 µM; `COc1c(OC)c(Cl)c2sc(C(=N)NO)cc2c1Cl` [Cl OCH3 Cl NH2 S HCl, 4,7-dichloro-N-hydroxy-5,6-dimethoxy-benzo[b]thiophene-2-carboximidamide hydrochloride]: 8 µM; `COc1cc2sc(C(=N)NO)cc2c(Cl)c1O` [Cl OH H NH2 S HCl, 4-chloro-5,N-dihydroxy-6-methoxy-benzo[b]thiophene-2-carboximidamide hydrochloride]: 10 µM. In turn, `COc1cc2sc(C(=N)NO)cc2cc1OC(F)F` [H OCHF2 H NH2 S HCl, 5-difluoromethyloxy-N-hydroxy-6-methoxy-benzo[b]thiophene-2-carboximidamide hydrochloride] returned an EC50 of 5 µM.

`COc1cc2sc(C(=N)NO)cc2c(Br)c1OC` [Br OCH3 H NH2 S CH3 SO3 H, 4-bromo-N-hydroxy-5,6-dimethoxy-benzo[b]thiophene-2-carboximidamide methanesulphonate]: the EC50 came out at 1 µM. Against the preceding compound, the EC50 is about 5-fold lower. As for `COc1cc2c(cc1OC)CCC(C(=N)NO)=C2` [H OCH3 H NH2 (CH2)2 HCl, 1,2-dihydro-N-hydroxy-6,7-dimethoxy-naphthalene-3-carboximidamide], the figure is 3 µM; as for `COc1cc2sc(C=NO)cc2c(Cl)c1OC` (mixture of isomers) [Cl OCH3 H H(Z/E mixture) S none, 4-chloro-5,6-dimethoxy-benzo[b]thiophene-2-carboxaldehyde oxime], 5 µM.
